ChEMBL document CHEMBL1201862, “PubChem BioAssay data set” (2004)
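Each compound was tested at five concentrations against cells in 96-well plates for 48 hours. GI50 marks 50% less growth.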 Active and inactive are the calls of the source. Rule as the data show it: active = GI50 up to about 1.1 µM and inactive = higher.

Key:
Assay in all cases: NCI-60 cell line screen, 48 h
DMS-114 = system: DMS-114
DMS-273 = system: DMS-273
M19-MEL = system: M19-MEL
HOP-18 = system: HOP-18
LXFL 529 = system: LXFL 529
RXF 631 = system: RXF 631
XF498 = system: XF498
KM-20L2 = system: KM-20L2
DLD-1 = system: DLD-1

Measured: GI50

O=C1CN(C(=O)c2ccccc2)Cc2[nH]c3ccccc3c21
inactive: DMS-114 > 100 µM | DMS-273 > 100 µM | M19-MEL > 100 µM | HOP-18 > 100 µM | LXFL 529 > 100 µM | RXF 631 > 100 µM | XF498 > 100 µM | KM-20L2 > 100 µM | DLD-1 > 100 µM
